Tests used:
human TLR7 = target: T1, human TLR7 (Homo sapiens, UniProt Q9NYK1); experiment: HEK293 SEAP reporter assay, other TLRs (Biological Example 3); format: cell-based; conditions: 16 hrs, * = Estimated
T1 construct: host or cells: HEK293
T1 sequence (Q9NYK1 27-1049): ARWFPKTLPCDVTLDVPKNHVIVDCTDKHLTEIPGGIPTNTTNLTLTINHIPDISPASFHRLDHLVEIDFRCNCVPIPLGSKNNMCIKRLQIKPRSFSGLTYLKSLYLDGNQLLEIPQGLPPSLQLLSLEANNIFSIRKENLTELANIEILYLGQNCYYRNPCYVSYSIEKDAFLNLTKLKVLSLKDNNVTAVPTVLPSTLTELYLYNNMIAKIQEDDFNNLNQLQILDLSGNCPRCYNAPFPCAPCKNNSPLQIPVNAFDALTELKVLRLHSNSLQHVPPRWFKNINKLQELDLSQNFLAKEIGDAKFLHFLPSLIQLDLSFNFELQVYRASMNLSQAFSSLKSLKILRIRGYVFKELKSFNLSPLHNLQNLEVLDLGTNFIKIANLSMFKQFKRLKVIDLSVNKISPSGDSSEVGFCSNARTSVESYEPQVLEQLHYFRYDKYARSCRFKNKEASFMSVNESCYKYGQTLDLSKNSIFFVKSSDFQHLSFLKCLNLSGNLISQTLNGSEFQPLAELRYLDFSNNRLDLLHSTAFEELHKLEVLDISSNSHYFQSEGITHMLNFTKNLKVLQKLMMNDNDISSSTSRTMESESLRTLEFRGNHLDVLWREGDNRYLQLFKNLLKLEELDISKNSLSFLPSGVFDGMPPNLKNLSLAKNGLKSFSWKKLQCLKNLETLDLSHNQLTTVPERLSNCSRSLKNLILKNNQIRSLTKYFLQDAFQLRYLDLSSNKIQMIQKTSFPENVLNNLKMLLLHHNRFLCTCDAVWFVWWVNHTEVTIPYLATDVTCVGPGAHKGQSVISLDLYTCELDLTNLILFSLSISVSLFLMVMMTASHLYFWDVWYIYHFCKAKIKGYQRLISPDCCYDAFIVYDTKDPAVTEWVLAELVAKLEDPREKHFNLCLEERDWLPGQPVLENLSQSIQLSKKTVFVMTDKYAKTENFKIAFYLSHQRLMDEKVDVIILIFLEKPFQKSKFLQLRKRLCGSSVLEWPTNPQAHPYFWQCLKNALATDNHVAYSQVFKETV
Description: (§1) In this example, the activity of the Compound 1 to stimulate different human and mouse TLR pathways was investigated on HEK293 cells transfected with inducible SEAP (secreted embryonic alkaline phosphatase) reporter genes and also expressing different human TLRs (TLR2, TLR3, TLR4, TLR5, TLR7, TLR8, TLRS) or mouse TLRs (TLR2, TLR3, TLR4, TLR5, TLR7, TLR8, TLR13).
(§2) HEK293 reporter cell lines were purchased from Invivogen and cell lines were maintained in manufacture recommended culture medium with required supplemental antibiotics. On the day of assay, the cells were harvested with Accutase and counted by the Vi-CELL Cell Viability Analyzers. Cells were re-suspended in HEK blue detection medium and a total of 10000 cells were seeded in each well of a 384-well flat bottom plate. […] Assay plates were cultured at 37° C. in a CO2 incubator for 16 hrs. HEK-Blue™ Detection medium changes to a purple/blue color in the presence of secreted SEAP, which can be detected by spectrophotometry at 620-655 nm. Data was fitted with non-linear regression analysis, using a log(inhibitor) vs. response-variable slope, 3-parameter fit with GraphPad Prism.

human TLR8 = target: T2, human TLR8 (Homo sapiens, UniProt Q9NR97); experiment: as above; format: cell-based; conditions: 16 hrs, * = Estimated
T2 construct: host or cells: HEK293
T2 sequence (Q9NR97 27-1041): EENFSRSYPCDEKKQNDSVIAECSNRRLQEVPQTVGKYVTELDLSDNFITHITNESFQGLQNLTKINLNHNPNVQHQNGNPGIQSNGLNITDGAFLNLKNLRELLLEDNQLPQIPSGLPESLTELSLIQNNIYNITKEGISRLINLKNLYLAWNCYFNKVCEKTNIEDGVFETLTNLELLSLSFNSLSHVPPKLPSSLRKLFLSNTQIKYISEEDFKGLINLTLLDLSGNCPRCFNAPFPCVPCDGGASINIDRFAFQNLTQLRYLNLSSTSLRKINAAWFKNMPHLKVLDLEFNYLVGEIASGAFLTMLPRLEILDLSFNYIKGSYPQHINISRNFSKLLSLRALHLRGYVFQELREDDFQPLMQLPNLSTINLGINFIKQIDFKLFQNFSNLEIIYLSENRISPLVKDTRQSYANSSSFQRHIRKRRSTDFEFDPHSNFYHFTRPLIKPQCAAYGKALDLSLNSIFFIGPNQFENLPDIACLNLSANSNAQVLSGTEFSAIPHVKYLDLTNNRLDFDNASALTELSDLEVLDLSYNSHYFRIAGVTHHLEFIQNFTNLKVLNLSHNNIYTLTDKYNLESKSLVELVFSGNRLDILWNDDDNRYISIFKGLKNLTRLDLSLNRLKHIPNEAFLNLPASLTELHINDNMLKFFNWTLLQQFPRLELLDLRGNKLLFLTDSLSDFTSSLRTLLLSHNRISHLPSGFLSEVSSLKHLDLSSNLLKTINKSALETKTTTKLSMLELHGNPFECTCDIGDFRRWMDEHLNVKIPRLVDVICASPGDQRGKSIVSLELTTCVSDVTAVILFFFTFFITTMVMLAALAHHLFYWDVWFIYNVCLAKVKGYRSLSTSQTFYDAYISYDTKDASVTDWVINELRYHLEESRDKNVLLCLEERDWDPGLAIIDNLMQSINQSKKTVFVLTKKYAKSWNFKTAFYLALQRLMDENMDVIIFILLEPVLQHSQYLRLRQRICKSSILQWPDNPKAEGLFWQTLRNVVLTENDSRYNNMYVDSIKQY
Description: as §1, §2

EC50 (human TLR7): 61.4 nM
EC50 (human TLR8): ~401 nM
Structure (SMILES): CCCCn1nc2c(N)nc3ccccc3c2c1Cc1ccc(CN)cc1 [Compound 1, 1-(4-(aminomethyl)benzyl)-2-butyl-2H-pyrazolo[3,4-c]quinolin-4-amine]
